According to article PMC9374744, “Structural basis for receptor selectivity and inverse agonism in S1P5 receptors” (Nature Communications, 2022):
pEC50: −log10 of the molar value. Where “and” joins values, the source holds several entries; their conditions need not be identical. Equal entries are not always repeated.

Experiments:
human S1P5 V115L mutant = human S1P5 V115L mutant (Homo sapiens, UniProt Q9H228, V115L); assay: BRET-based cAMP Gi signaling assay, S1P5 V115L; details: inverse agonism
Chain of human S1P5 V115L mutant (Q9H228 whole entry V115L): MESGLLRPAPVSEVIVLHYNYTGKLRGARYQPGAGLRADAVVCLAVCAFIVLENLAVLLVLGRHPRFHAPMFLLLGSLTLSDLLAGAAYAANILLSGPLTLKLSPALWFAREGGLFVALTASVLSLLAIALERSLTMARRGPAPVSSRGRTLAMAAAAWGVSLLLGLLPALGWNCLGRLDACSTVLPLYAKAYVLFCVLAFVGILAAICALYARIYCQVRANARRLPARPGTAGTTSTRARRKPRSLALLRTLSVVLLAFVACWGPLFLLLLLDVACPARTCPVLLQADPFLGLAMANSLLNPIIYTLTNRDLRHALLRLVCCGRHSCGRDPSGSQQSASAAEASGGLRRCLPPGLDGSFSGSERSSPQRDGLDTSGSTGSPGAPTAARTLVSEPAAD

human S1P5 T79A mutant = human S1P5 T79A mutant (Homo sapiens, UniProt Q9H228, T79A); assay: BRET-based cAMP Gi signaling assay, S1P5 T79A; details: for pEC50: inverse agonism; for BRET signal, raw replicates: Suppl. Fig. 6d, listed as ONO
Chain of human S1P5 T79A mutant (Q9H228 whole entry T79A): as the sequence (Q9H228 whole entry V115L) above, with T79A, L115V counted along it

human S1P5 N92C mutant = human S1P5 N92C mutant (Homo sapiens, UniProt Q9H228, N92C); assay: BRET-based cAMP Gi signaling assay, S1P5 N92C; details: inverse agonism
Chain of human S1P5 N92C mutant (Q9H228 whole entry N92C): as the sequence (Q9H228 whole entry V115L) above, with N92C, L115V counted along it

human S1P5 K24R mutant = human S1P5 K24R mutant (Homo sapiens, UniProt Q9H228, K24R); assay: BRET-based cAMP Gi signaling assay, S1P5 K24R; details: for BRET ratio, Supplementary Figure 6b: replicate values, listed as ONO; for pEC50: inverse agonism
Chain of human S1P5 K24R mutant (Q9H228 whole entry K24R): as the sequence (Q9H228 whole entry V115L) above, with K24R, L115V counted along it

human S1P5 C43F mutant = human S1P5 C43F mutant (Homo sapiens, UniProt Q9H228, C43F); assay: BRET-based cAMP Gi signaling assay, S1P5 C43F; details: inverse agonism
Chain of human S1P5 C43F mutant (Q9H228 whole entry C43F): as the sequence (Q9H228 whole entry V115L) above, with C43F, L115V counted along it

human S1P5 R111A mutant = human S1P5 R111A mutant (Homo sapiens, UniProt Q9H228, R111A); assay: BRET-based cAMP Gi signaling assay, S1P5 R111A; details: inverse agonism
Chain of human S1P5 R111A mutant (Q9H228 whole entry R111A): as the sequence (Q9H228 whole entry V115L) above, with R111A, L115V counted along it

human S1P5 Y89A mutant = human S1P5 Y89A mutant (Homo sapiens, UniProt Q9H228, Y89A); assay: BRET-based cAMP Gi signaling assay, S1P5 Y89A; details: inverse agonism
Chain of human S1P5 Y89A mutant (Q9H228 whole entry Y89A): as the sequence (Q9H228 whole entry V115L) above, with Y89A, L115V counted along it

human S1P5 K24Q mutant = human S1P5 K24Q mutant (Homo sapiens, UniProt Q9H228, K24Q); assay: BRET-based cAMP Gi signaling assay, S1P5 K24Q; details: inverse agonism
Chain of human S1P5 K24Q mutant (Q9H228 whole entry K24Q): as the sequence (Q9H228 whole entry V115L) above, with K24Q, L115V counted along it

human S1P5 M296W mutant = human S1P5 M296W mutant (Homo sapiens, UniProt Q9H228, M296W); assay: BRET-based cAMP Gi signaling assay, S1P5 M296W; details: listed as ONO
Chain of human S1P5 M296W mutant (Q9H228 whole entry M296W): as the sequence (Q9H228 whole entry V115L) above, with L115V, M296W counted along it

[1] = Figure 2c source data, N/R = no response

SMILES: O=C(O)CCCN1CCc2cccc(OCCc3cccc4ccccc34)c2CC1 [ONO-5430608, 4-{6-[2-(1-naphthyl)ethoxy]-1,2,4,5-tetrahydro-3H-3-benzazepin-3-yl} butanoic acid]
- pEC50 (human S1P5 V115L mutant; ONO, pEC50, M, V115L, mean ± SD, n=3): 7.60
- pEC50 (human S1P5 V115L mutant; ONO-5430608 pEC50, single experiments #1-#3, V115L, Figure 2c source data): 7.68 and 7.59 and 7.64
- pEC50 (human S1P5 T79A mutant; ONO, pEC50, M, T79A, mean ± SD, n=3): 8.29
- pEC50 (human S1P5 T79A mutant; ONO-5430608 pEC50, single experiments #1-#3, T79A, Figure 2c source data): 8.42 and 8.22 and 8.24
- BRET signal, raw replicates (human S1P5 T79A mutant; [ONO] 0.169351 nM, T79A): 0.7648 and 0.7694 and 0.7618 (2×) and 0.7719 and 0.7737 and 0.7678 and 0.7602 and 0.7581
- BRET signal, raw replicates (human S1P5 T79A mutant; [ONO] 0.508053 nM, T79A): 0.7658 and 0.7637 (2×) and 0.7584 and 0.7703 and 0.7711 and 0.7719 and 0.7599 and 0.7561
- BRET signal, raw replicates (human S1P5 T79A mutant; [ONO] 1.52416 nM, T79A): 0.7571 and 0.7588 and 0.7577 and 0.7674 and 0.7689 and 0.7688 and 0.7557 and 0.7543 and 0.7567
- BRET signal, raw replicates (human S1P5 T79A mutant; [ONO] 4.57247 nM, T79A): 0.7445 and 0.7467 and 0.7472 (2×) and 0.7504 and 0.7523 and 0.7521 and 0.7458 and 0.7451
- BRET signal, raw replicates (human S1P5 T79A mutant; [ONO] 13.7174 nM, T79A): 0.7344 and 0.7321 and 0.7375 and 0.7326 and 0.7336 and 0.7328 and 0.7266 and 0.7286 and 0.7299
- BRET signal, raw replicates (human S1P5 T79A mutant; [ONO] 41.1523 nM, T79A): 0.7277 and 0.7202 and 0.7265 and 0.7247 and 0.7224 and 0.7225 and 0.7195 and 0.7262 and 0.7173
- BRET signal, raw replicates (human S1P5 T79A mutant; [ONO] 123.457 nM, T79A): 0.7246 and 0.7211 and 0.7132 and 0.7206 and 0.7203 and 0.7177 and 0.7146 and 0.7143 and 0.7168
- BRET signal, raw replicates (human S1P5 T79A mutant; [ONO] 370.37 nM, T79A): 0.7198 and 0.7165 and 0.7203 and 0.7175 and 0.72 and 0.7188 and 0.7152 and 0.7138 and 0.7182
- BRET signal, raw replicates (human S1P5 T79A mutant; [ONO] 1111.11 nM, T79A): 0.7229 and 0.7217 and 0.7211 and 0.7178 and 0.7185 and 0.7189 and 0.7126 and 0.7148 and 0.7145
- BRET signal, raw replicates (human S1P5 T79A mutant; [ONO] 3333.33 nM, T79A): 0.7168 and 0.7147 and 0.7207 and 0.7195 and 0.7142 and 0.7166 and 0.7162 and 0.7151 and 0.7155
- ONO-5430608 pEC50, single experiments #1-#3 (human S1P5 N92C mutant; [1]): N/R
- ONO, pEC50, M (human S1P5 N92C mutant; n=3, N/R = no response): N/R
- BRET ratio, Supplementary Figure 6b (human S1P5 K24R mutant; K24R, [ONO] 0.169351 nM): 0.7619 and 0.7605 and 0.7627 and 0.7643 and 0.765 and 0.7649 and 0.7612 and 0.7652 and 0.7621
- BRET ratio, Supplementary Figure 6b (human S1P5 K24R mutant; K24R, [ONO] 0.508053 nM): 0.7573 and 0.7607 and 0.7624 and 0.7643 and 0.7627 and 0.7635 and 0.7628 and 0.761 and 0.7617
- BRET ratio, Supplementary Figure 6b (human S1P5 K24R mutant; K24R, [ONO] 1.52416 nM): 0.7542 and 0.7548 and 0.7577 and 0.7568 (2×) and 0.7598 and 0.7585 and 0.7546 and 0.7523
- BRET ratio, Supplementary Figure 6b (human S1P5 K24R mutant; K24R, [ONO] 4.57247 nM): 0.7493 and 0.7475 and 0.7463 and 0.7487 and 0.7486 and 0.7479 and 0.7433 and 0.7453 and 0.7422
- BRET ratio, Supplementary Figure 6b (human S1P5 K24R mutant; K24R, [ONO] 13.7174 nM): 0.7349 and 0.7366 and 0.7407 and 0.7346 and 0.7367 and 0.7337 and 0.7316 and 0.7355 and 0.7298
- pEC50 (human S1P5 K24R mutant; ONO, pEC50, M, K24R, mean ± SD, n=3): 8.34
- pEC50 (human S1P5 K24R mutant; ONO-5430608 pEC50, single experiments #1-#3, K24R, Figure 2c source data): 8.33 and 8.31 and 8.39
- pEC50 (human S1P5 C43F mutant; ONO, pEC50, M, C43F, mean ± SD, n=3): 8.35
- pEC50 (human S1P5 C43F mutant; ONO-5430608 pEC50, single experiments #1-#3, C43F, Figure 2c source data): 8.41 and 8.35 and 8.30
- ONO-5430608 pEC50, single experiments #1-#3 (human S1P5 R111A mutant; [1]): N/R
- ONO, pEC50, M (human S1P5 R111A mutant; n=3, N/R = no response): N/R
- ONO-5430608 pEC50, single experiments #1-#3 (human S1P5 Y89A mutant; [1]): N/R
- ONO, pEC50, M (human S1P5 Y89A mutant; n=3, N/R = no response): N/R and abolishes the functional response
- ONO-5430608 pEC50, single experiments #1-#3 (human S1P5 K24Q mutant; [1]): N/R
- ONO, pEC50, M (human S1P5 K24Q mutant; n=3, N/R = no response): N/R
- BRET ratio, single replicate readings (Supplementary Figure 6h) (human S1P5 M296W mutant; [ONO] 0.169351 nM): 0.7521 and 0.7659 and 0.7554 and 0.7607 and 0.7663 and 0.7553 and 0.7695 and 0.7638 and 0.7661
- BRET ratio, single replicate readings (Supplementary Figure 6h) (human S1P5 M296W mutant; [ONO] 0.508053 nM): 0.7597 and 0.7659 and 0.7636 and 0.7627 and 0.756 and 0.7622 and 0.7625 and 0.7687 and 0.7621
- BRET ratio, single replicate readings (Supplementary Figure 6h) (human S1P5 M296W mutant; [ONO] 1.52416 nM): 0.7595 and 0.7589 (2×) and 0.7566 and 0.7528 and 0.7609 and 0.7625 and 0.7671 and 0.7682
- BRET ratio, single replicate readings (Supplementary Figure 6h) (human S1P5 M296W mutant; [ONO] 4.57247 nM): 0.7595 and 0.7699 and 0.7641 and 0.7574 and 0.7643 and 0.7563 and 0.7684 and 0.7632 and 0.7578
- BRET ratio, single replicate readings (Supplementary Figure 6h) (human S1P5 M296W mutant; [ONO] 13.7174 nM): 0.7542 and 0.7653 and 0.7527 and 0.7649 and 0.7654 and 0.7644 and 0.7698 and 0.7669 and 0.7638
- BRET ratio, single replicate readings (Supplementary Figure 6h) (human S1P5 M296W mutant; [ONO] 41.1523 nM): 0.7431 and 0.7677 and 0.7621 and 0.752 and 0.762 and 0.7675 and 0.761 and 0.7565 and 0.7598
